Data reported in US5648330A, “Method and composition for treating vascular graft occlusion” (La Jolla Cancer Research Foundation, priority 1995, dated 1997).
Values joined by “and” are separate entries in the source; they are usually repeats but may differ in a detail not shown here. Identical values can stand only once. Where no end group is shown, it is not given here. [ ]: non-standard residue; d: D form. Pen = CC(C)(S)[C@H](N)C(=O)O

Tests used:
[1] = tested on: platelets stimulated with ADP; assay: ADP-stimulated platelet aggregation (Born aggregometry, PRP); format: cell-based, human; conditions: ADP 10 μm, platelet-rich plasma, 37° C.
Description: Platelet aggregation was assessed using the method of Born, Nature 194: 927-929 (1962), incorporated herein by reference. Briefly, the change in light transmission was measured through a stirred suspension of platelets in an aggregometer (Model 400 VS, Chrono-Log, Havertown, Pa., USA). Studies employing ADP were performed with platelet-rich plasma (PRP), which was obtained by low-speed centrifugation (200× g for 10 min.) of whole blood freshly drawn into trisodium citrate (at a final concentration of 11 mM). […] For all studies, the reference standard was platelet-poor plasma, which was obtained by centrifuging PRP at 1000× g for 5 min.

coronary thrombosis = assay: Electrically induced canine coronary thrombosis, time to full occlusion; format: in vivo, dog
Description: Male mongrel dogs weighing 14 to 20 kg were selected based on proper aggregation of their platelets in response to arachidonic acid, collagen, and adenosine disphosphate (ADP) and based on similar weights and hemodynamic properties.
Before surgery, the animals were anesthetized with sodium pentobarbital (30 mg/kg, i.v.) and then intubated and ventilated on room air with positive pressure using a respirator (Harvard Apparatus, S. Natick, Mass.) at a volume of 30 ml/kg and a frequency of 12 breaths/min. Surgery, performed under aseptic conditions, was begun with the placement of cannulae into the left carotid artery and jugular vein for monitoring arterial blood pressure (Statham P23 pressure transducer, Gould, Inc., Cardiovascular Products, Oxnard, Calif.) and administering intravenous fluids.
The heart was exposed via a left thoracotomy through the 5th intercostal space. A 2-cm segment of the left circumflex coronary artery (LCCA) was isolated from surrounding tissue by blunt dissection. […] The intra-coronary electrode was constructed by attaching a 25-gauge hypodermic needle tip to a 30-gauge Teflon-insulated silver-coated copper wire. The mechanical occluder was constructed of stainless steel in a C shape with a Teflon screw (2 mm diameter) on top. It was adjusted to control vessel circumference and decrease the reactive hyperemic flow due to a 10-sec (full) occlusion by 50-70% without affecting basal coronary blood flow (FIG. 1c). A monopolar epicardial electrode was sutured to the surface of the ventricle in the region of LCCA distribution to monitor ischemic changes in the electrocardiogram (ECG). The left atrium was cannulated with polythylene tubing for administration of the peptide. Continuous recordings of blood pressure, limb lead II ECG, epicardial electrogram, and mean and phasic LCCA blood flow were obtained on a Model 7 polygraph (Grass Instrument Co., Quincy, Mass.).
One hour after the completion of surgery, a 100 micro-amp continuous anodal direct current delivered from a 9 volt nickel-cadmium battery was applied to the intimal surface of the LCCA. The anode of the battery was in series with a 250,000 ohm potentiometer and the intraluminal coronary artery electrode. The electric circuit was completed by placing the cathode in a subcutaneous site. Electrical stimulation was applied for three hours. At the conclusion of each experiment, the heart was fibrillated electrically and quickly removed, and the LCCA was dissected free as far as possible to verify the position of the implanted anodal electrode.
(§1) Animals were randomly assigned to two treatment groups: vehicle control (i.e., normal saline) or RGD peptides at various concentrations. Peptides were administered intra-atrially in both bolus and continuous injections. […] A continuous infusion of the same peptide was then started immediately after completion of this initial injection. Animals that received a 5 mg/kg bolus also received a 5 mg/kg/hr infusion, whereas animals that received a 10 mg/kg bolus also received a 10 mg/kg/hr infusion. The anti-thrombotic effects of the peptides were monitored until 30 minutes after the occurrence of a persistent, occlusive thrombus or five hours after the initiation of electrical stimulation (whichever resulted first). If an occlusive thrombus had not developed within four hours after the initiation of current, the peptide infusion was stopped.
Coronary thrombosis was quantified as the time to full occlusion. The effects of the various peptide treatments on coronary thrombosis is illustrated in FIG. 4.

[2] = tested on: canine platelet aggregation; assay: In vitro canine platelet aggregation stimulated by ADP, arachidonic acid or collagen; format: cell-based, dog; conditions: 10 μm ADP, […] arachidonic acid or 9.6 micrograms/ml collagen; PRP; read-out: IC50 against canine platelet aggregation
Description: (§2) Platelet counts and ex vivo aggregation studies were performed one hour before and 1, 3, and 5 hours after application of anodal direct current.
Epinephrine (550 nM) was used to prime platelets before stimulation with arachidonic acid. Peptides were added in 1% dilutions to the PRP solutions.

platelet aggregation [3] = assay: Ex vivo ADP-stimulated platelet aggregation in baboon PRP; conditions: animal 2; ADP 10 μm; 0, 1 and 2 hours
Description: At one- and two-hour time points, template bleeding times were measured, and blood samples were drawn to assess the hematology aggregation studies. Platelet aggregation studies were performed as described in Example V using ADP as the stimulus.
In addition, platelet aggregation studies were conducted on PRP derived from the second animal. Whole blood was drawn at three time points (0, 1 and 2 hours) of both control and experimental shunts.

platelet aggregation [4] = assay: Ex vivo platelet aggregation after peptide injection in canine coronary thrombosis model; set-up: species or system dog; conditions: for ex vivo aggregation reduced relative to control: 3 mg/kg
Description: For all ex vivo studies (see FIGS. 3a, 3b1, 3b2, 3b3, 3c1 and 3c2), control aggregation values were standardized to the percentages of light transmission observed in PRP and PPP samples (0% and 100%, respectively).
as §1, §2
Platelet aggregation was also determined ex vivo at one, three, and five hours after current application. For these studies, arachidonic acid, or collagen was again used to stimulate the platelets.
The average aggregation values determined in these studies for all of the peptide treatments are depicted in FIGS. 3a, 3b1, 3b2, 3b3, 3c1, and 3c2. […] The control responses in these studies were 70-80% of maximum. […] Here the control responses were 55-80% of maximum.

[5] = tested on: Gore-tex vascular graft thrombosis; assay: Platelet and fibrinogen uptake by Gore-tex grafts in baboon ex vivo shunt
Description: Adult male baboons (weighing 16 to 25 kg) were used in these studies. These were sedated with ketamine hydrochloride (200 to 250 mg intramuscular injection) and maintained under anesthesia with sodium pentobarbital (50 to 75 mg administered intravenously as necessary).
Twenty-four hours before the ex vivo shunt was established, platelets were isolated from 500 ml of blood from the test animal and labelled with ca. 500 microcuries of indium-111 oxine (Medi+Physics, Emeryville, Calif.), which irreversibly and specifically binds to platelets with an efficiency of 50%. Immediately after labelling, these platelets were then injected back into the animal and allowed to circulate for 24 hours. Immediately before the start of the study, fibrinogen that had been isolated from the animal and labelled with iodine-131 (DuPont Nuclear, Boston, Mass.) was also injected back into the animal. Also at this time, baseline determinations of the clotting and template bleeding times were made, and blood samples were drawn for hematology studies.
To establish the ex vivo shunt, the femoral artery and vein were percutaneously cannulated with introducer catheters (KMA Inc., Mansfield, Mass.). The catheters were then connected to medical-grade, heparin-coatedsilastic tubing (2.59 mm internal diameter, (Extracorporeal Medical Specialties, Inc., King of Prussia, Pa.). […] Finally, a 5 cm-long test segment of a 4 mm (internal diameter) vascular graft was inserted at the apex of the circuit. The graft used in these studies was Gore-tex (expanded polytetrafluoroethylene, (W. L. Gore and Associates, Inc., Flagstaff, Ariz.). An electromagnetic flow probe was then inserted into the tubing circuit to measure blood flow, which was maintained at 100 ml/min. by varying the resistance imported by a partially occluding screw clamp that was distal to the probe. Finally, a 5 cm-long test segment of a 4 mm (internal diameter) vascular graft was inserted at the apex of the circuit. The graft used in these studies was Gore-tex (expanded polytetrafluoroethylene, W. L. Gore and Associates, Inc., Flagstaff, Ariz.).
Platelet deposition onto the grafts was monitored by dynamic scanning with a gamma camera (Sigma 400, Ohio Nuclear, Inc., Sohon, Ohio), which detects the gamma radiation emitted by the indium^111 -labelled platelets. Once the circuit was in place, the animal was placed under this camera, and blood flow was initiated. Scans were then taken at the rate of one frame per two minutes for two hours. The data from these scans were collected on a dedicated Digital MDA computer (Maynard, Mass.). […]

[6] = tested on: platelets stimulated with thrombin; assay: Thrombin-stimulated platelet aggregation (Born aggregometry); format: cell-based, human; conditions: thrombin 2 U/ml, gel-filtered platelets, 37° C.
Description: Platelet aggregation was assessed using the method of Born, Nature 194: 927-929 (1962), incorporated herein by reference. Briefly, the change in light transmission was measured through a stirred suspension of platelets in an aggregometer (Model 400 VS, Chrono-Log, Havertown, Pa., USA). […] In studies using thrombin, the PRP was gel-filtered on Sepharose 2B in divalent ion-free Tyrode's solution containing 2% BSA. For all studies, the reference standard was platelet-poor plasma, which was obtained by centrifuging PRP at 1000× g for 5 min.
All aggregation studies were performed at 37° C. with a constantly stirred suspension of 3×10^8 platelets/ml. (Platelet count was determined with the aid of a hemacytometer.) Peptides and stimulants were added to these suspensions in 1% dilutions. The PRP and gel-filtered platelets were used within three hours from the time of blood collection.
Peptide anti-aggregation potencies were determined from dose-responsive curves for the inhibition of the maximum aggregation responses stimulated by physiologic doses of ADP (10 μm) and thrombin (2 U/ml).

[7] = 10 mg/kg bolus + 10 mg/kg/hr infusion, intra-atrial
[8] = 10 mg/kg, all three time points
[9] = animal 1, two bolus IV injections of 10 mg/kg
[10] = animal 2, 10 mg/kg IV bolus + 10 mg/kg/hr infusion for two hours

Row | Substance | IC50 [1] | IC50 [6] | also measured
1 | (t-but-am-Pmp)GHRGDLRPenA | 89 µM |  | 
2 | (t-butylAmino-Pmp) GHRGDLRCA | 130 µM |  | 
3 | FRGDSPDG | 110 µM |  | 
4 | GPenFRGDSFCA | > 200 µM |  | 
5 | GPenGHRGDLRCA |  |  | time to full occlusion (coronary thrombosis; [7]): did not significantly influence; IC50 [2]: 15 to 30 µM; ex vivo platelet response to ADP (platelet aggregation [3]): completely unresponsive; ex vivo inhibition of AA-stimulated aggregation relative to control (platelet aggregation [4]; [8]): 43-70%; ex vivo inhibition of collagen-stimulated aggregation relative to control (platelet aggregation [4]; [8]): 12-50%; ex vivo inhibition of ADP-stimulated aggregation (platelet aggregation [4]; 10 mg/kg, one, three, five hours): substantially inhibited; reduction in I131-fibrinogen uptake by graft [5, 9]: 79%; reduction in In111-platelet uptake by graft [5, 9]: 90%; reduction in labelled fibrinogen uptake by graft [5, 10]: 78%; reduction in labelled platelet uptake by graft [5, 10]: 84%
6 | GPenGHRGDTRCA | 11.3 µM | 17 µM | 
7 | GPenGRGDRPCA | 22.3 µM |  | 
8 | GPenGRGDTPCA | 22.3 µM | 28 µM | 
9 | GPenLRGDSPCA | 415 µM | 308 µM | 
10 | GPenLRGDSRCA | 41 µM | 49 µM | 
11 | GPenLRGDTPCA | 86 µM |  | 
12 | G[Pen]GRGDSFCA (cysteine pairing not given here) | 115 µM |  | 
13 | G[Pen]YRGDSPCA (cysteine pairing not given here) | 47 µM |  | 
14 | LPenGHRGDLRCA | 10.5 µM |  | 
15 | LRGDSPDG | 150 µM |  | 
16 | PmpGRGDTPCA | 85 µM |  | 
17 | R2 PenGRGDTPCA | 8.2 µM | 2.7 µM | 
18 | R(orn)GHRGDLRDR | > 200 µM |  | 
19 | RPenGHRGDWRCR | 1.3 µM | 1.2 µM | thrombus formation in animals with circulating platelet levels one-third of normal (coronary thrombosis; 5 mg/kg): able to prevent thrombus formation; time to full occlusion (coronary thrombosis; 5 mg/kg bolus + 5 mg/kg/hr infusion): significantly prolonged the time to occlusion; time to full occlusion (coronary thrombosis; [7]): completely prevented occlusion; IC50 [2]: 1.5 to 5 µM; ex vivo inhibition of platelet activation by collagen (platelet aggregation [4]; 5 mg/kg): near-maximal inhibition; ex vivo platelet response to ADP and AA (platelet aggregation [4]; 5 mg/kg, all three time points): completely unresponsive; ex vivo anti-aggregation effect when platelet count was low (platelet aggregation [4]; 5 mg/kg, platelet count ca. one-third of normal (104,000/ml vs. 361,000/ml)): more pronounced; ex vivo platelet responsiveness (platelet aggregation [4]; 10 mg/kg, five-hour point): slightly improved; ex vivo platelet aggregation by all three stimuli (platelet aggregation [4]; 10 mg/kg, one- and three-hour time points): prevented platelet aggregation
20 | RPenGRGDTPCA | 7 µM | 3.1 µM | 
21 | RPenGRGDTPCK | 7.6 µM |  | 
22 | RPenGRGDTPCR | 6.3 µM | 2 µM | 
23 | RPenGRGDWPCR |  | 0.53 µM | time to full occlusion (coronary thrombosis; 3 mg/kg): ineffective; time to full occlusion (coronary thrombosis; [7]): prevented occlusion; IC50 [2]: 1.5 to 5 µM; ex vivo aggregation reduced relative to control (platelet aggregation [4]; one hour): 20-58%; ex vivo aggregation reduced relative to control (platelet aggregation [4]; three and five hours, listed as 4R): 75-100% and 72-100%; ex vivo platelet response to all modes of stimulation (platelet aggregation [4]; 10 mg/kg, all time points): unresponsive
24 | R[Pen]GHRGDTRCR (cysteine pairing not given here) | 8.8 µM |  | 
25 | R[Pen]GRGDLRCA (cysteine pairing not given here) | 16 µM | 13 µM | 
26 | R[Pen]GRGDSRCA (cysteine pairing not given here) | 12 µM | 12 µM | 
27 | VRGDSPDG | 92 µM |  | 
